In patent US20210244712A1, “METHODS FOR TREATING PATIENTS WITH CANCER HAVING DEFECTS IN CYCLIN D REGULATION” (NysnoBio Ireland DAC, priority 2018, published 2021):
Where two headings read alike, the source gives them in different places.

Experiments:
Format in all cases: cell-based
HCT 116 = assay: Cell proliferation assay; conditions: Homo sapiens, Table 7b, HCT-116, read-out: Cell Proliferation Assay (EC50)
Procedure: (§1) Measurement of the inhibitive effect of compounds on cancer cell proliferation was performed. The assays were performed under the following conditions: Cells are harvested at a concentration of 4×10^4 cells/ml in media. Volumes of 100 μL/well of these cell suspensions were added to a 96 well plate using a multichannel pipette. Plates were gently agitated to ensure an even dispersion of cells over a given plate. Cells were then incubated at 37° C., 5% CO2 overnight. Following this, 100 μL of compound at varying concentrations was added to wells in triplicate. Control wells are those with 100 μL media containing 0.33% DMSO added to cell suspension (this is the equivalent volume of DMSO found in the highest concentration of drug). Plates were then gently agitated, as above, and incubated at 37° C., 5% CO2 for 72 hrs (control wells have reached 80-90% confluency). Assessment of cell proliferation in the presence of Compounds C and F was determined by the acid phosphatase assay.
(§2) Following the incubation period of 72 hrs, media was removed from the plates. Each well on the plate was washed twice with 100 μL PBS. This was then removed and 100 μL of freshly prepared phosphatase substrate (10 mM p-nitrophenol phosphate in 0.1M sodium acetate, 0.1% triton X-100, pH 5.5) was added to each well. The plates were then incubated in the dark at 37° C. for 2 hours. Color development was monitored during this time. The enzymatic reaction was stopped by the addition of 50 μL of 1N NaOH. The plate was read in a dual beam plate reader at 405 nm with a reference wavelength of 620 nm. The absorbance reading of the latter is subtracted from the former, and the effect of the drug on cell proliferation was then measured as a percentage against the control cells (DMSO), which is taken as 0% inhibition.

TOV-112D = assay: Cell proliferation assay; conditions: Homo sapiens, TOV112D, Table 7b, TOV-112D, read-out: Cell Proliferation Assay (EC50)
Procedure: as §1, §2

cyclin D1 = assay: Western blot of Cyclin D1, Example 6B; conditions: 250 nM, 24 h, compared to control (DMSO)
Procedure: Cells were plated at a density of 3×10^5 cells/well for 24 hrs. Representative compounds or DMSO alone was then added to the wells for 24 h at 250 nM (note: Compound F was administered at a concentration of 2 μM). Cells were trypsinised, pelleted, washed ×3 in PBS, and lysed using a 2% SDS lysis solution (Sigma—05030).
Western blot analysis was then carried out to look at Cyclin D1 (Abeam—ab134175), PRK8 (Sigma—P6248), Rb (Abeam—[…]) and GAPDH (Sigma—G9545) levels.

Row | SMILES | EC50 (HCT 116; cells printed in nM) [nM] | EC50 (TOV-112D; cells printed in nM) [nM] | Cyclin D1 expression (cyclin D1; HCT-116) | Cyclin D1 expression (cyclin D1; TOV-112) | EC50 (HCT 116; cells printed in μM) [nM] | EC50 (TOV-112D; cells printed in μM) [nM]
1 | CCCCCCC(=O)NCc1ccc(C(=O)Nc2nc(-c3ncccc3C)nn2-c2cccc(F)c2)cc1 [Compound 4x, N-(1-(3-fluorophenyl)-3-(3-methylpyridin-2-yl)-1H-1,2,4-triazol-5-yl)-4-(heptanamidomethyl)benzamide] | 295 | 227 |  |  |  | 
2 | CCCCCCC(=O)NCc1ccc(C(=O)Nc2nc(-c3ncccc3C)nn2-c2ccc(OC(F)(F)F)cc2)cc1 [Compound 3x, 4-(heptanamidomethyl)-N-(3-(3-methylpyridin-2-yl)-1-(4-(trifluoromethoxy)phenyl)-1H-1,2,4-triazol-5-yl)benzamide] | 484 | 349 |  |  |  | 
3 | Cc1ccccc1C(=O)Nc1nc(NC(=O)c2cccc(CN3CCOCC3)c2)nn1-c1ccc(OC(F)(F)F)cc1 [Compound 11x, 2-methyl-N-(3-(3-(morpholinomethyl)benzamido)-1-(4-(trifluoromethoxy)phenyl)-1H-1,2,4-triazol-5-yl)benzamide] | 929 | 774 | reduction of Cyclin D1 expression | reduction of Cyclin D1 expression |  | 
4 | Cc1cccnc1-c1nc(NC(=O)c2ccc(CN)cc2)n(-c2cccc(F)c2)n1 [Compound 6x, 4-(aminomethyl)-N-(1-(3-fluorophenyl)-3-(3-methylpyridin-2-yl)-1H-1,2,4-triazol-5-yl)benzamide] |  |  | reduction of Cyclin D1 expression | reduction of Cyclin D1 expression | 2000 | 2000
5 | CCCCCCC(=O)NCc1ccc(C(=O)Nc2nc(-c3ccccc3O)nn2-c2ccc(OC(F)(F)F)cc2)cc1 [Compound 9x, 4-(heptanamidomethyl)-N-(3-(2-hydroxyphenyl)-1-(4-(trifluoromethoxy)phenyl)-1H-1,2,4-triazol-5-yl)benzamide] | 121 | 82 |  |  |  | 
6 | Cc1ccccc1C(=O)Nc1nc(NC(=O)c2ccc(CN3CCN(C)CC3)cc2)nn1-c1ccc(OC(F)(F)F)cc1 [Compound 14x, 2-methyl-N-(3-(4-((4-methylpiperazin-1-yl)methyl)benzamido)-1-(4-(trifluoromethoxy)phenyl)-1H-1,2,4-triazol-5-yl)benzamide] | 412 | 655 | reduction of Cyclin D1 expression | reduction of Cyclin D1 expression |  | 
7 | Cc1ccccc1C(=O)Nc1nc(NC(=O)c2ccc(CN)cc2)nn1-c1ccc(OC(F)(F)F)cc1 [Compound 1x, N-(3-(4-(aminomethyl)benzamido)-1-(4-(trifluoromethoxy)phenyl)-1H-1,2,4-triazol-5-yl)-2-methylbenzamide] | 972 | 350 |  |  |  | 
8 | Cc1ccccc1C(=O)Nc1nc(NC(=O)c2cccc(CN3CCN(C)CC3)c2)nn1-c1ccc(OC(F)(F)F)cc1 [Compound 15x, 2-methyl-N-(3-(3-((4-methylpiperazin-1-yl)methyl)benzamido)-1-(4-(trifluoromethoxy)phenyl)-1H-1,2,4-triazol-5-yl)benzamide] |  |  |  |  | 1000 | 3000
9 | Cc1ccccc1C(=O)Nc1nc(NC(=O)c2ccc(CNC(C)C)cc2)nn1-c1ccc(OC(F)(F)F)cc1 [Compound 12x, N-(3-(4-((isopropylamino)methyl)benzamido)-1-(4-(trifluoromethoxy)phenyl)-1H-1,2,4-triazol-5-yl)-2-methylbenzamide] | 755 | 183 |  |  |  | 
10 | Cc1ccccc1C(=O)Nc1nc(NC(=O)c2cccc(CNC(C)C)c2)nn1-c1ccc(OC(F)(F)F)cc1 [Compound 13x, N-(3-(3-((isopropylamino)methyl)benzamido)-1-(4-(trifluoromethoxy)phenyl)-1H-1,2,4-triazol-5-yl)-2-methylbenzamide] | 426 | 231 | reduction of Cyclin D1 expression | reduction of Cyclin D1 expression |  | 
11 | Cc1ccccc1C(=O)Nc1nc(NC(=O)c2ccc(CN)cc2)n(-c2ccc(OC(F)(F)F)cc2)n1 [Compound 2x] |  |  |  |  | 3000 | 4000
12 | Cc1ccccc1C(=O)Nc1nc(NC(=O)c2ccc(CNC(=O)[C@@H]3CCCN3)cc2)nn1-c1ccc(OC(F)(F)F)cc1 [Compound 16x, (S)—N-(4-((5-(2-methylbenzamido)-1-(4-(trifluoromethoxy)phenyl)-1H-1,2,4-triazol-3-yl)carbamoyl)benzyl)pyrrolidine-2-carboxamide] | 412 | 659 |  |  |  | 
13 | CCCCCCC(=O)N1CCN(c2ccc(-n3nc(-c4ccccc4O)nc3NC(=O)c3ccccc3C)cc2)CC1 [Compound 8x, N-(1-(4-(4-heptanoylpiperazin-1-yl)phenyl)-3-(2-hydroxyphenyl)-1H-1,2,4-triazol-5-yl)-2-methylbenzamide] | 246 | 124 |  |  |  | 
14 | Cc1ccccc1C(=O)Nc1nc(-c2ccccc2O)nn1-c1ccc(N2CCNCC2)cc1 [Compound 7x, N-(3-(2-hydroxyphenyl)-1-(4-(piperazin-1-yl)phenyl)-1H-1,2,4-triazol-5-yl)-2-methylbenzamide] | 406 | 285 | reduction of Cyclin D1 expression | reduction of Cyclin D1 expression |  | 
15 | NCc1ccc(C(=O)Nc2nc(-c3ccccc3O)nn2-c2ccc(OC(F)(F)F)cc2)cc1 [Compound 10x, 4-(aminomethyl)-N-(3-(2-hydroxyphenyl)-1-(4-(trifluoromethoxy)phenyl)-1H-1,2,4-triazol-5-yl)benzamide] | 108 | 71 | reduction of Cyclin D1 expression | reduction of Cyclin D1 expression |  | 
16 | Cc1cccnc1-c1nc(NC(=O)c2ccc(CN)cc2)n(-c2ccc(OC(F)(F)F)cc2)n1 [Compound 5x, 4-(aminomethyl)-N-(3-(3-methylpyridin-2-yl)-1-(4-(trifluoromethoxy)phenyl)-1H-1,2,4-triazol-5-yl)benzamide] | 133 | 114 | reduction of Cyclin D1 expression | reduction of Cyclin D1 expression |  | 
